Each structure is given as a SMILES string. Read-outs that look alike come from different tables or passages of the source.

Data set [1] is described as follows: MTT cytotoxicity (growth inhibition) assay, HEK-293 (non-tumor). It is filed as cell-based. Particulars: human, HEK-293 embryonic kidney cells (non-tumor). As to the method: (§1) • Cell culture. Cell culture media were purchased from Gibco (Grand Island, NY, USA). Fetal bovine serum (FBS) was a product of Harlan-Seralab (Belton, UK). Supplements and other chemicals not listed in this section were obtained from Sigma Chemical Co. (St. Louis, MO, USA). Plastics for cell culture were supplied by Thermo Scientific BioLite. All tested compounds were dissolved in DMSO at a concentration of 20 mM and stored at –20 °C until use. HT-29, A-549, and HEK-293 cell lines were maintained in a Dulbecco’s modified Eagle’s medium (DMEM) containing glucose (1 g/L), glutamine (2 mM), penicillin (50 μg/mL), streptomycin (50 μg/mL), and amphotericin B (1.25 μg/mL), supplemented with 10% FBS. • Cytotoxicity assays. 5 × 10^3 cells per well were incubated in 96-well plates with serial dilutions of the tested compounds in a total volume of 100 μL of their growth media. 3-(4,5-dimethylthiazol-2-yl)-2,5-diphenyltetrazolium bromide (MTT; Sigma Chemical Co.) dye reduction assay in 96-well microplates was used. Then, 10 μL of MTT (5 mg/mL in phosphate-buffered saline, PBS) was added to each well after 2 days of incubation (37 °C, 5% CO2 in a humid atmosphere). The plate was incubated for a further 3 h (37 °C). After that, the supernatant was discarded and 100 μL of DMSO were added in order to dissolve formazan crystals. The absorbance was read at 550 nm by spectro-photometry. For all concentrations of compound, cell viability was expressed as the percentage of the ratio between the mean absorbance of treated cells and the mean absorbance of untreated cells. Three independent experiments were performed, and the IC50 values (i.e., concentration half inhibiting cell proliferation) were graphically determined using GraphPad Prism 9 software.

The test system of data set [2] is human lung cancer cell line A-549. The data set is described as follows: MTT cytotoxicity (growth inhibition) assay, A-549. It is filed as cell-based. As for the experimental part: as §1
Data set [3] deals with human colon cancer cell line HT-29. Put plainly: MTT cytotoxicity (growth inhibition) assay, HT-29. It is filed as cell-based. As for the experimental part: as §1
Data set [4] deals with K562 leukemia cancer cell line. Also noted: method as in PMID 18396050. To be noted: ref [15], cited from earlier work.
The next data set has as its system HT-29. Also noted: method as in PMID 18396050, PMID 18681482, PMID 22137934, PMID 22304851, PMID 24222525. Particulars: known triazole analogues of CA-4; ref [15],[16],[17],[18],[19],[20]; read-out: IC50 HT-29 (Figure 2); cited from earlier work.
In data set [5] the test system is human embryonic kidney cell line HEK-293. Also noted: method as in PMID 32033084. To be noted: reference compound; ref [30]; read-out: Cytotoxicity IC50 HEK-293; cited from earlier work.
Data set [6] has as its system human lung cancer cell line A-549. On the set-up: method as in PMID 32033084. To be noted: reference compound; ref [30]; read-out: Cytotoxicity IC50 A-549; cited from earlier work.
Data set [7] deals with human colon cancer cell line HT-29. On the set-up: method as in PMID 32033084. Particulars: reference compound; ref [30]; read-out: Cytotoxicity IC50 HT-29; cited from earlier work.
Setting [8] is: A549, 48 h, read-out: Cytotoxicity IC50 A-549.
The mark [9] stands for this setting: HT-29, 48 h, read-out: Cytotoxicity IC50 HT-29.
Setting [10] is: known triazole analogues of CA-4, read-out: IC50 K562 (Figure 2).

Usually IC50 stands for the concentration at which inhibition is half-maximal. In the case of `COc1cc(-n2nncc2-c2ccc(Cl)cc2)cc(OC)c1OC` [3g, 5-(4-chlorophenyl)-1-(3,4,5-trimethoxyphenyl)-1H-1,2,3-triazole], the concentration for half-maximal inhibition (IC50) at 48 h in data set [1] was more than 200 µM. In addition, the IC50 in data set [2] (setting [8]) and in data set [3] (setting [9]) was more than 100 µM each time.
In the case of `CCOc1ccc(-c2cnnn2-c2cc(OC)c(OC)c(OC)c2)cc1Br` [3m, 5-(3-bromo-4-ethoxyphenyl)-1-(3,4,5-trimethoxyphenyl)-1H-1,2,3-triazole], in data set [1], the IC50 at 48 h was more than 200 µM. The IC50 is 59 ± 1 µM in data set [2] (setting [8]) and 20 ± 5 µM in data set [3] (setting [9]).
For `COc1cc(-n2nncc2-c2ccc(C)cc2)cc(OC)c1OC` [3d, 5-(p-tolyl)-1-(3,4,5-trimethoxyphenyl)-1H-1,2,3-triazole] the same measures were more than 200 µM, more than 200 µM and more than 100 µM.
Take `COc1ccc(-c2cnnn2-c2cc(OC)c(OC)c(OC)c2)cc1[N+](=O)[O-]` [R^1 = H, R^2 = NO2]: in data set [4] (setting [10]), the IC50 was 460 nM.
With `COc1cc(-n2nncc2-c2ccc(C(F)(F)F)cc2)cc(OC)c1OC` [3e, 5-(4-(trifluoromethyl)phenyl)-1-(3,4,5-trimethoxyphenyl)-1H-1,2,3-triazole], the half-inhibitory concentration (IC50) at 48 h in data set [1] was more than 200 µM. The half-maximal inhibitory concentration (IC50) is more than 100 µM in data set [2] (setting [8]) and 54 ± 3 µM in data set [3] (setting [9]).
On to `COc1ccc(-c2cnnn2-c2cc(OC)c(OC)c(OC)c2)c(N)c1N` [R^1 = R^2 = NH2], for which the half-inhibitory concentration (IC50) with HT-29 is 17.2 µM.
Regarding `COc1cc(-n2nncc2-c2ccc(F)cc2)cc(OC)c1OC` [3f, 5-(4-fluorophenyl)-1-(3,4,5-trimethoxyphenyl)-1H-1,2,3-triazole], the IC50 at 48 h in data set [1] was more than 200 µM. Besides, the half-inhibitory concentration (IC50) in data set [2] (setting [8]) and in data set [3] (setting [9]) was more than 200 µM each time.
On to `COc1ccc(/C=C\c2cc(OC)c(OC)c(OC)c2)cc1O` [CA-4, combretastatin A-4], for which the IC50 was 25 ± 3 µM in data set [5], 428 ± 4 nM in data set [6] and 4.2 ± 0.5 µM in data set [7].
Regarding `COc1cc(-n2nncc2-c2ccccc2Br)cc(OC)c1OC` [3b, 5-(2-bromophenyl)-1-(3,4,5-trimethoxyphenyl)-1H-1,2,3-triazole], the IC50 at 48 h in data set [1] was more than 200 µM. Besides, the IC50 in data set [2] (setting [8]) and in data set [3] (setting [9]) was more than 100 µM throughout.
For the compound `COc1ccc(-c2cnnn2-c2cc(OC)c(OC)c(OC)c2)cc1Cl` [3n, 5-(3-chloro-4-methoxyphenyl)-1-(3,4,5-trimethoxyphenyl)-1H-1,2,3-triazole], the IC50 at 48 h in data set [1] was 0.025 ± 0.008 µM. Also, the half-maximal inhibitory concentration (IC50) in data set [2] (setting [8]) is 0.0032 ± 0.0009 µM; in data set [2] (A549, 48 h incubation, rounded value, read-out: IC50 A-549) it was 0.003 µM; in data set [3] (setting [9]), 0.021 ± 0.006 µM.
In data set [1], `COc1cc(-n2nncc2-c2ccc(O)c(O)c2)cc(OC)c1OC` [3q, 4-(1-(3,4,5-trimethoxyphenyl)-1H-1,2,3-triazol-5-yl)benzene-1,2-diol] yielded a half-inhibitory concentration (IC50) at 48 h of more than 200 µM. The IC50 in data set [2] (setting [8]) and in data set [3] (setting [9]) was more than 200 µM each time.
Compound `COc1cc(-n2nncc2-c2ccccc2[N+](=O)[O-])cc(OC)c1OC` [3c, 5-(2-nitrophenyl)-1-(3,4,5-trimethoxyphenyl)-1H-1,2,3-triazole] came in with an IC50 at 48 h in data set [1] of more than 200 µM. In addition, the IC50 was more than 200 µM in data set [2] (setting [8]) and more than 100 µM in data set [3] (setting [9]).
The compound `COc1cc(-n2nncc2-c2ccc(Br)cc2)cc(OC)c1OC` [3h, 5-(4-bromophenyl)-1-(3,4,5-trimethoxyphenyl)-1H-1,2,3-triazole] registered an IC50 at 48 h in data set [1] of more than 200 µM. Also, the half-inhibitory concentration (IC50) in data set [2] (setting [8]) and in data set [3] (setting [9]) was more than 100 µM each time.
With `COc1cc(-n2nncc2-c2ccc(OC)c([N+](=O)[O-])c2[N+](=O)[O-])cc(OC)c1OC` [R^1 = R^2 = NO2], the concentration for half-maximal inhibition (IC50) in the data set with HT-29 was 12 µM.
For the compound `COc1cc(-n2nncc2-c2ccc(O)c(Br)c2)cc(OC)c1OC` [3p, 2-bromo-4-(1-(3,4,5-trimethoxyphenyl)-1H-1,2,3-triazol-5-yl)phenol], the half-inhibitory concentration (IC50) at 48 h in data set [1] was more than 200 µM. The IC50 in data set [2] (setting [8]) and in data set [3] (setting [9]) was more than 200 µM each time.
`CCOc1ccc(-c2cnnn2-c2cc(OC)c(OC)c(OC)c2)cc1` [3j, 5-(4-ethoxyphenyl)-1-(3,4,5-trimethoxyphenyl)-1H-1,2,3-triazole] gave a half-inhibitory concentration (IC50) at 48 h in data set [1] of 19 ± 4 µM. Besides, the IC50 in data set [2] (setting [8]) was 5.8 ± 0.8 µM; in data set [3] (setting [9]), 0.0021 ± 0.0009 µM; in data set [3] (HT-29, 48 h incubation, rounded value, read-out: IC50 HT-29), 0.002 µM.
In the case of `COc1ccc(-c2cnnn2-c2cc(OC)c(OC)c(OC)c2)cc1` [3i, 5-(4-methoxyphenyl)-1-(3,4,5-trimethoxyphenyl)-1H-1,2,3-triazole], the IC50 at 48 h in data set [1] came out at 35 ± 9 µM. For the same compound, the concentration for half-maximal inhibition (IC50) was 0.022 ± 0.007 µM in data set [2] (setting [8]); 27 nM in data set [4] (previously described, read-out: IC50 K562 leukemia cancer cell line); 0.02 ± 0.009 µM in data set [3] (setting [9]).
Regarding `COc1ccc(Br)c(-c2cnnn2-c2cc(OC)c(OC)c(OC)c2)c1` [3l, 5-(2-bromo-5-methoxyphenyl)-1-(3,4,5-trimethoxyphenyl)-1H-1,2,3-triazole], the 50% inhibitory concentration (IC50) at 48 h in data set [1] is more than 200 µM. Moreover, the concentration for half-maximal inhibition (IC50) in data set [2] (setting [8]) was more than 200 µM; in data set [3] (setting [9]), more than 100 µM.
Compound `COc1ccc(-c2cnnn2-c2cc(OC)c(OC)c(OC)c2)c(Br)c1` [3k, 5-(2-bromo-4-methoxyphenyl)-1-(3,4,5-trimethoxyphenyl)-1H-1,2,3-triazole] displayed an IC50 at 48 h in data set [1] of more than 100 µM. Also, the figures for the IC50 in data set [2] (setting [8]) and in data set [3] (setting [9]) were 33 ± 2 µM and 56 ± 4 µM, respectively.
For `COc1cc(-n2nncc2-c2ccccc2)cc(OC)c1OC` [3a, 5-phenyl-1-(3,4,5-trimethoxyphenyl)-1H-1,2,3-triazole] the same measures were more than 200 µM, more than 200 µM and more than 100 µM.
Consider `COc1ccc(-c2cnnn2-c2cc(OC)c(OC)c(OC)c2)cc1Br` [R^1 = H, R^2 = Br], for which the IC50 in data set [4] (setting [10]) is 57 nM.
Regarding `COc1ccc(-c2cnnn2-c2cc(OC)c(OC)c(OC)c2)c(F)c1F` [R^1 = R^2 = F], in the data set with HT-29, the IC50 was 1.9 µM.
In the case of `COc1ccc(-c2cnnn2-c2cc(OC)c(OC)c(OC)c2)cc1N` [R^1 = H, R^2 = NH2], the IC50 in data set [4] (setting [10]) was 11 nM.
`COc1ccc(-c2cnnn2-c2cc(OC)c(OC)c(OC)c2)cc1OC` [3o, 5-(3,4-dimethoxyphenyl)-1-(3,4,5-trimethoxyphenyl)-1H-1,2,3-triazoletriazole]: in data set [1], the 50% inhibitory concentration (IC50) at 48 h is more than 200 µM. Further, the half-maximal inhibitory concentration (IC50) was more than 200 µM in data set [2] (setting [8]) and more than 100 µM in data set [3] (setting [9]).

The record behind these values is publication PMC11767582, “Synthesis and Biological Evaluation of New cis-Restricted Triazole Analogues of Combretastatin A-4” (Molecules, 2025).
